Reference: ChEMBL document CHEMBL3632556, “Synthesis and biological evaluation of new C-10 substituted dithranol pleiotropic hybrids” (Bioorg Med Chem, 2015)

Assays:
Rattus norvegicus [1] = assay: Acute toxicity in Fisher 344 rat up to 0.1 mmol/kg, ip; assay type: organism-based; conditions: in vivo
[2] = Antioxidant activity assessed as increase of DPPH free radical scavenging activity by measuring reducing activity at 100 uM after 60 mins by spectrophotometry; assay type: physicochemical; conditions: 1 h
[3] = Antioxidant activity assessed as inhibition of AAPH-induced linoleic acid lipid peroxidation at 100 uM; assay type: physicochemical
[4] = Antioxidant activity assessed as DPPH free radical scavenging activity by measuring reducing activity at 100 uM after 20 mins by spectrophotometry; assay type: physicochemical; set-up: scale not given: the % may be the effect or the level left
[5] = Inhibition of soybean LOX assessed as reduction in conversion of sodium linoleate to 13-hydroperoxylinoleic acid by UV analysis; set-up: species or system Glycine max
[6] = Cytotoxicity against human HaCaT cells assessed as cell survival at 10 uM after 48 hrs by MTT assay (reference value: 95.75 +/- 2.47%); assay type: cell-based; conditions: read-out: Survival
[7] = Cytotoxicity against human HaCaT cells assessed as cell survival at 0.01 uM after 48 hrs by MTT assay (reference value: 100%); assay type: cell-based; conditions: read-out: Survival
[8] = Cytotoxicity against human HaCaT cells assessed as cell survival at 100 uM after 48 hrs by MTT assay (reference value: 88.07 +/- 9.81%); assay type: cell-based; conditions: read-out: Survival
HaCaT [9] = assay: Antiproliferative activity against human HaCaT cells after 24 hrs by MTT assay; assay type: functional, cell-based
Rattus norvegicus [10] = assay: Anti-inflammatory activity in Fisher 344 rat assessed as inhibition of carrageenan-induced paw edema at 0.01 mmol/kg, ip after 3.5 hrs; assay type: functional; conditions: Fisher 344, ip
[11] = Cytotoxicity against human HaCaT cells assessed as cell survival at 1 uM after 48 hrs by MTT assay (reference value: 97.50 +/- 0.71%); assay type: cell-based; conditions: read-out: Survival
[12] = Lipophilicity, RM of the compound by RP-TLC method; assay type: physicochemical
HaCaT [13] = assay: Antiproliferative activity against human HaCaT cells; assay type: functional, cell-based
[14] = Cytotoxicity against human HaCaT cells assessed as cell survival at 0.1 uM after 48 hrs by MTT assay (reference value: 96.75 +/- 1.77%); assay type: cell-based; conditions: read-out: Survival
Glycine max = assay: Inhibition of soybean LOX assessed as reduction in conversion of sodium linoleate to 13-hydroperoxylinoleic acid at 100 uM by UV analysis
[15] = Drug degradation in DMSO up to 48 hrs; assay type: physicochemical

SMILES | Activity (Rattus norvegicus [1]) | Activity [2] | inhibition (INH) [3] | Activity [4] | IC50 [5] | viability at 48 h, 10 µM [6] [%] | viability at 48 h, 0.01 µM [7] [%] | viability at 48 h, 100 µM [8] [%] | IC50 (HaCaT [9]) [µM] | inhibition in vivo at 10 µmol/kg (Rattus norvegicus [10]) [%] | viability at 48 h, 1 µM [11] [%] | Rm [12] | IC50 (HaCaT [13]) [µM] | viability at 48 h, 0.1 µM [14] [%] | inhibition (Glycine max) [%] | IC50 ([5]; read-out: IC50) [µM] | Stability [15]
NCCCNCCCCNCCCNC(=O)CC1c2cccc(O)c2C(=O)c2c(O)cccc21.O=C(O)C(F)(F)F.O=C(O)C(F)(F)F.O=C(O)C(F)(F)F | Non-toxic | Not Active | 87% | 93% | Not Active |  |  |  |  |  |  |  |  |  |  |  | 
O=C1c2c(O)cccc2Cc2cccc(O)c21 [ANTHRALIN] | Non-toxic | Active | 28% | 31% | Not Active | 5.23 | 94.5 | 1.7 | 0.945 | 42 | 48.1 | 0.7 | 0.7 | 87.8 |  |  | 
CCCCCCCCCCCCNC(=O)CC1c2cccc(O)c2C(=O)c2c(O)cccc21 | Non-toxic | Not Active | 74% | 98% |  | 7.79 | 55.9 | 1.22 | 0.022 |  | 14.6 |  |  | 37.7 | 32 |  | 
CCOC(=O)CC1c2cccc(O)c2C(=O)c2c(O)cccc21 | Non-toxic | Active | 14% | 31% |  | 28.8 | 47 | 6.5 | 0.357 |  | 49.9 | 0.63 |  | 53.4 |  | 44.5 | 
CC(Cc1ccc(O)c(O)c1)C(C)Cc1ccc(O)c(O)c1 (stereo unspecified) [NORDIHYDROGUAIARETIC ACID] |  | Not Active |  | 81% |  |  |  |  |  |  |  |  |  |  |  |  | 
O=C(O)CC1c2cccc(O)c2C(=O)c2c(O)cccc21 | Non-toxic | Active | 20% | 25% |  | 42 | 87.1 | 41.2 | 1.9 | 13 | 60.4 |  |  | 58 |  | 50 | 
NCCCNCCCCNCCCN [SPERMINE] |  | Not Active | Not Active | 4% | Not Active |  |  |  |  |  |  |  |  |  |  |  | 
COc1ccc(CNC(=O)CC2c3cccc(O)c3C(=O)c3c(O)cccc32)c(OC)c1 | Non-toxic | Not Active | 81% | 87% |  | 8.42 | 92.3 | 0.05 | 10 |  | 135 |  |  | 134 |  | 50 | 
Cc1c(C)c2c(c(C)c1O)CCC(C)(C(=O)O)O2 (stereo unspecified) [TROLOX] |  |  | 63% |  |  |  |  |  |  |  |  |  |  |  |  |  | 
CCCCNC(=O)CC1c2cccc(O)c2C(=O)c2c(O)cccc21 | Non-toxic | Active | 59% | 31% |  | 24.4 | 87.2 | 13.7 | 5.4 | 35 | 80.9 | 0.05 |  | 83.7 |  | 10 | 
NCCCCNC(=O)CC1c2cccc(O)c2C(=O)c2c(O)cccc21.O=C(O)C(F)(F)F | Non-toxic | Not Active | 91% | 65% |  |  |  |  |  |  |  | 0.63 |  |  | 35 |  | 
O=C1c2cccc(Cl)c2Cc2c(Cl)cccc21 |  |  |  |  |  |  |  |  |  |  |  |  |  |  |  |  | Unstable
NCCCCNCCCN [SPERMIDINE] |  | Not Active | Not Active | Not Active | Not Active |  |  |  |  |  |  |  |  |  |  |  | 
NCCc1ccc(O)c(O)c1 [DOPAMINE] |  | Not Active | 43% | 86% |  |  |  |  |  | 13 |  |  |  |  |  | 100 | 
NCCCCN(CCCN)C(=O)CC1c2cccc(O)c2C(=O)c2c(O)cccc21.O=C(O)C(F)(F)F.O=C(O)C(F)(F)F | Non-toxic | Not Active | 74% | 48% |  |  |  |  |  |  |  |  |  |  | 26 |  | 
O=C(CC1c2cccc(O)c2C(=O)c2c(O)cccc21)NCc1ccccc1 | Non-toxic | Active | 66% | 20% |  |  |  |  |  | 35 |  | 0.66 |  |  |  | 7.9 | 
COc1ccc(C(NC(C)=O)c2ccc(OC)cc2)cc1 | Non-toxic | Not Active | 94% | Not Active |  |  |  |  |  | 45 |  |  |  |  |  | 100 | 
COc1ccc(CNC(=O)CC2c3cccc(O)c3C(=O)c3c(O)cccc32)cc1OC | Non-toxic | Not Active | 65% | 61% |  | 3 | 18.5 | 0 |  |  | 12.3 |  |  | 13.3 |  | 61.5 | 
O=C(CC1c2cccc(O)c2C(=O)c2c(O)cccc21)NCCc1ccc(O)c(O)c1 | Non-toxic | Not Active | 5% | 32% |  | 128 | 91.1 | 2.98 | 100 |  | 112 |  |  | 114 | 42 |  | 
CC(C)(C)OC(=O)NCCCCNC(=O)CC1c2cccc(O)c2C(=O)c2c(O)cccc21 | Non-toxic | Not Active | 62% | 33% |  |  |  |  |  |  |  |  |  |  | 46 |  | 
CC(C)(C)OC(=O)CC1c2cccc(O)c2C(=O)c2c(O)cccc21 | Non-toxic | Active | 79% | 9% | Not Active |  |  |  |  |  |  |  |  |  |  |  | 
COc1ccc2c(c1)c(CC(=O)O)c(C)n2C(=O)c1ccc(Cl)cc1 [INDOMETHACIN] |  |  |  |  |  |  |  |  |  | 47 |  |  |  |  |  |  | 
CC(C)(C)OC(=O)NCCCN(CCCCN(CCCNC(=O)CC1c2cccc(O)c2C(=O)c2c(O)cccc21)C(=O)OC(C)(C)C)C(=O)OC(C)(C)C | Non-toxic | Not Active | 93% | 29% | Not Active |  |  |  |  |  |  |  |  |  |  |  | 
